Compound in the assay “Idelalisib + Pemetrexed”: CC[C@H](Nc1ncnc2[nH]cnc12)c1nc2cccc(F)c2c(=O)n1-c1ccccc1 [Idelalisib] + Nc1nc2[nH]cc(CCc3ccc(C(=O)N[C@@H](CCC(=O)O)C(=O)O)cc3)c2c(=O)[nH]1 [Pemetrexed] (partner 0.2 µM)
Nature of the assay: relative viability (nuclei count vs DMSO), 5 days (fraction); higher = more cells survive. The essentials:
(§1)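 Nuclei were stained with Hoechst during a one-step fixation (final 0.05% Triton X-100, 1% formaldehyde, 1 ug/ml Hoechst) carried out 5 days after dosing, then counted on 4× images. The cells, lung cancer lines in 1536-well plates, had been dosed by pin tool the day after seeding with one drug alone or a fixed anchor-drug dose plus five library-drug doses (not always all listed) in √10 steps. Relative viability is the nuclei count in treated wells divided by that in vehicle wells, and each value is the median of duplicate plates.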

Compound in the assay “Idelalisib + Olaparib”: CC[C@H](Nc1ncnc2[nH]cnc12)c1nc2cccc(F)c2c(=O)n1-c1ccccc1 [Idelalisib] + O=C(c1cc(Cc2n[nH]c(=O)c3ccccc23)ccc1F)N1CCN(C(=O)C2CC2)CC1 [Olaparib] (partner 8 µM)
The assay is described as above. The essentials: as §1

As to A-427, the relative viability with Idelalisib + Pemetrexed (first compound 0.04 µM) was determined as 1.11; with Idelalisib + Pemetrexed (first compound 0.1265 µM), 1; with Idelalisib + Pemetrexed (first compound 0.4 µM) it was 0.925; with Idelalisib + Pemetrexed (first compound 1.265 µM) it was 0.998; with Idelalisib + Pemetrexed (first compound 4 µM), 0.955; with Idelalisib + Olaparib (first compound 0.04 µM) it was 0.853. In addition, the relative viability came to 0.788 with Idelalisib + Olaparib (first compound 0.1265 µM), 0.712 with Idelalisib + Olaparib (first compound 0.4 µM), 0.785 with Idelalisib + Olaparib (first compound 1.265 µM) and 0.711 with Idelalisib + Olaparib (first compound 4 µM).
Take NCI-H520: the relative viability with Idelalisib + Pemetrexed (first compound 0.04 µM) turned out to be 0.75; with Idelalisib + Pemetrexed (first compound 0.1265 µM), 0.595; in the assay with Idelalisib + Pemetrexed (first compound 0.4 µM), 0.567; in the assay with Idelalisib + Pemetrexed (first compound 1.265 µM) it was 0.637; in the assay with Idelalisib + Pemetrexed (first compound 4 µM), 0.451; with Idelalisib + Olaparib (first compound 0.04 µM), 0.34. Besides, the relative viability in the assay with Idelalisib + Olaparib (first compound 0.1265 µM) is 0.364; with Idelalisib + Olaparib (first compound 0.4 µM), 0.276; in the assay with Idelalisib + Olaparib (first compound 1.265 µM), 0.302; with Idelalisib + Olaparib (first compound 4 µM), 0.269.
Take NCI-H650: the relative viability with Idelalisib + Pemetrexed (first compound 0.04 µM) worked out at 0.983; in the assay with Idelalisib + Pemetrexed (first compound 0.1265 µM), 0.995; with Idelalisib + Pemetrexed (first compound 0.4 µM) it was 0.923; with Idelalisib + Pemetrexed (first compound 1.265 µM), 0.77; with Idelalisib + Pemetrexed (first compound 4 µM), 0.92; with Idelalisib + Olaparib (first compound 0.04 µM), 0.414. The relative viability was found to be 0.441 with Idelalisib + Olaparib (first compound 0.1265 µM), 0.362 with Idelalisib + Olaparib (first compound 0.4 µM), 0.334 with Idelalisib + Olaparib (first compound 1.265 µM) and 0.37 with Idelalisib + Olaparib (first compound 4 µM).
As for COR-L 105, the relative viability in the assay with Idelalisib + Pemetrexed (first compound 0.04 µM) amounted to 1.18; with Idelalisib + Pemetrexed (first compound 0.1265 µM) it was 1.1; in the assay with Idelalisib + Pemetrexed (first compound 0.4 µM), 0.913; in the assay with Idelalisib + Pemetrexed (first compound 1.265 µM), 1.06; in the assay with Idelalisib + Pemetrexed (first compound 4 µM), 0.924; with Idelalisib + Olaparib (first compound 0.04 µM), 0.628. Moreover, the relative viability in the assay with Idelalisib + Olaparib (first compound 0.1265 µM) is 0.638; with Idelalisib + Olaparib (first compound 0.4 µM), 0.656; in the assay with Idelalisib + Olaparib (first compound 1.265 µM), 0.715; in the assay with Idelalisib + Olaparib (first compound 4 µM), 0.666.
Turning to NCI-H1755, the relative viability with Idelalisib + Pemetrexed (first compound 0.04 µM) is 0.431; with Idelalisib + Pemetrexed (first compound 0.1265 µM) it was 0.415; with Idelalisib + Pemetrexed (first compound 0.4 µM) it was 0.38; in the assay with Idelalisib + Pemetrexed (first compound 1.265 µM) it was 0.434; in the assay with Idelalisib + Pemetrexed (first compound 4 µM), 0.438; in the assay with Idelalisib + Olaparib (first compound 0.04 µM) it was 0.881. For the same cell line, the relative viability with Idelalisib + Olaparib (first compound 0.1265 µM) came out at 0.892; with Idelalisib + Olaparib (first compound 0.4 µM), 0.842; with Idelalisib + Olaparib (first compound 1.265 µM), 0.801; with Idelalisib + Olaparib (first compound 4 µM), 0.821.
On to NCI-H2085, for which the relative viability in the assay with Idelalisib + Pemetrexed (first compound 0.04 µM) stood at 0.909; with Idelalisib + Pemetrexed (first compound 0.1265 µM), 0.852; with Idelalisib + Pemetrexed (first compound 0.4 µM), 0.789; with Idelalisib + Pemetrexed (first compound 1.265 µM), 0.746; in the assay with Idelalisib + Pemetrexed (first compound 4 µM), 0.528; in the assay with Idelalisib + Olaparib (first compound 0.04 µM), 0.642. Also, the relative viability in the assay with Idelalisib + Olaparib (first compound 0.1265 µM) is 0.743; with Idelalisib + Olaparib (first compound 0.4 µM), 0.767; with Idelalisib + Olaparib (first compound 1.265 µM) it was 0.741; with Idelalisib + Olaparib (first compound 4 µM), 0.677.
NCI-H2023: the relative viability in the assay with Idelalisib + Pemetrexed (first compound 0.04 µM) is 0.244; in the assay with Idelalisib + Pemetrexed (first compound 0.1265 µM) it was 0.239; with Idelalisib + Pemetrexed (first compound 0.4 µM), 0.212; with Idelalisib + Pemetrexed (first compound 1.265 µM), 0.169; in the assay with Idelalisib + Pemetrexed (first compound 4 µM), 0.256; with Idelalisib + Olaparib (first compound 0.04 µM), 0.463. Moreover, the relative viability came to 0.495 with Idelalisib + Olaparib (first compound 0.1265 µM), 0.542 in the assay with Idelalisib + Olaparib (first compound 0.4 µM), 0.436 with Idelalisib + Olaparib (first compound 1.265 µM) and 0.472 with Idelalisib + Olaparib (first compound 4 µM).
With HOP-62, the relative viability with Idelalisib + Pemetrexed (first compound 0.04 µM) is 0.353; with Idelalisib + Pemetrexed (first compound 0.1265 µM), 0.331; in the assay with Idelalisib + Pemetrexed (first compound 0.4 µM) it was 0.284; with Idelalisib + Pemetrexed (first compound 1.265 µM) it was 0.278; with Idelalisib + Pemetrexed (first compound 4 µM), 0.248; with Idelalisib + Olaparib (first compound 0.04 µM) it was 0.306. The relative viability with Idelalisib + Olaparib (first compound 0.1265 µM) came to 0.538; with Idelalisib + Olaparib (first compound 0.4 µM), 0.442; with Idelalisib + Olaparib (first compound 1.265 µM), 0.387; with Idelalisib + Olaparib (first compound 4 µM) it was 0.498.

The record behind these values is the supplement of paper PMC10307832.
